In the supplement of paper PMC10307832:

Columns and labels:
Assay in all cases: relative viability (nuclei count vs DMSO), 5 days (fraction); higher = more cells survive
[1] = compound: C1CN(CCC1C(C2=CC3=C(C=C2)OCO3)(C4=CC5=C(C=C4)OCO5)O)C(=O)OC6=CC=C(C=C6)[N+](=O)[O-] [JZL-184] + Cc1cc(Nc2cc(N3CCN(C)CC3)nc(Sc3ccc(NC(=O)C4CC4)cc3)n2)n[nH]1 [Tozasertib] (partner 0.1 µM)
Procedure, shortened: (§1)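 Relative viability is defined as nuclei in treated wells over nuclei in vehicle wells. Duplicate plates were run and medians reported. Lung cancer cell lines in 1536-well plates were dosed by pin tool one day after seeding, with one drug or with a fixed anchor-drug dose plus five library-drug doses (not always all listed) in √10 steps, and nuclei were counted after 5 days.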

[2] = compound: C1CN(CCC1C(C2=CC3=C(C=C2)OCO3)(C4=CC5=C(C=C4)OCO5)O)C(=O)OC6=CC=C(C=C6)[N+](=O)[O-] [JZL-184] + O=C(c1cc(Cc2n[nH]c(=O)c3ccccc23)ccc1F)N1CCN(C(=O)C2CC2)CC1 [Olaparib] (partner 8 µM)
Procedure, shortened: as §1

[3] = compound: C1CN(CCC1C(C2=CC3=C(C=C2)OCO3)(C4=CC5=C(C=C4)OCO5)O)C(=O)OC6=CC=C(C=C6)[N+](=O)[O-] [JZL-184] + Cc1nc(Nc2ncc(C(=O)Nc3c(C)cccc3Cl)s2)cc(N2CCN(CCO)CC2)n1 [Dasatinib] (partner 0.075 µM)
Procedure, shortened: as §1

[4] = compound: C1CN(CCC1C(C2=CC3=C(C=C2)OCO3)(C4=CC5=C(C=C4)OCO5)O)C(=O)OC6=CC=C(C=C6)[N+](=O)[O-] [JZL-184] + O=C(CCCCCCC(=O)Nc1ccccc1)NO [Vorinostat] (partner 1 µM)
Procedure, shortened: as §1

[5] = compound: C1CN(CCC1C(C2=CC3=C(C=C2)OCO3)(C4=CC5=C(C=C4)OCO5)O)C(=O)OC6=CC=C(C=C6)[N+](=O)[O-] [JZL-184] + C[C@]1(O)C[C@@H](c2nc(-c3ccc4ccc(-c5ccccc5)nc4c3)c3c(N)nccn32)C1 [Linsitinib] (partner 1 µM)
Procedure, shortened: as §1

Row | Cell Line | relative viability ([1]; first compound 0.04 µM) | relative viability ([1]; first compound 0.4 µM) | relative viability ([1]; first compound 1.265 µM) | relative viability ([1]; first compound 4 µM) | relative viability ([2]; first compound 0.04 µM) | relative viability ([2]; first compound 0.4 µM) | relative viability ([2]; first compound 1.265 µM) | relative viability ([2]; first compound 4 µM) | relative viability ([3]; first compound 0.04 µM) | relative viability ([3]; first compound 0.4 µM) | relative viability ([3]; first compound 1.265 µM) | relative viability ([3]; first compound 4 µM) | relative viability ([4]; first compound 0.04 µM) | relative viability ([4]; first compound 0.4 µM) | relative viability ([4]; first compound 1.265 µM) | relative viability ([4]; first compound 4 µM) | relative viability ([5]; first compound 0.04 µM) | relative viability ([5]; first compound 0.4 µM) | relative viability ([5]; first compound 1.265 µM) | relative viability ([5]; first compound 4 µM)
1 | 201T | 1.02 | 0.981 | 0.988 | 0.862 | 0.858 | 0.845 | 0.82 | 0.841 | 0.577 | 0.535 | 0.61 | 0.574 | 0.995 | 0.983 | 1.01 | 0.902 | 1.03 | 1.01 | 1.05 | 1.02
2 | A549 | – | – | – | – | 0.31 | 0.288 | 0.382 | 0.367 | – | – | – | – | – | – | – | – | 0.559 | 0.457 | 0.519 | 0.633
3 | A-427 | 0.194 | 0.186 | 0.264 | 0.239 | 0.807 | 0.739 | 0.77 | 0.732 | 0.785 | 0.683 | 0.71 | 0.706 | 0.871 | 0.829 | 0.83 | 0.754 | 1.15 | 1.17 | 1.18 | 1.1
4 | ABC-1 | 0.195 | 0.202 | 0.174 | 0.164 | 0.821 | 0.814 | 0.842 | 0.829 | 0.601 | 0.479 | 0.533 | 0.482 | 1.59 | 0.961 | 1.42 | 0.929 | 0.988 | 0.821 | 0.812 | 0.756
5 | BEN | 0.513 | 0.536 | 0.506 | 0.456 | 1.15 | 1.01 | 1.24 | 1.03 | 0.333 | 0.349 | 0.328 | 0.337 | 0.538 | 0.524 | 0.538 | 0.594 | 1.19 | 0.881 | 0.995 | 0.995
6 | CAL-12T | 0.336 | 0.269 | 0.336 | 0.228 | 0.836 | 0.701 | 0.786 | 0.777 | 0.515 | 0.254 | 0.488 | 0.341 | 0.86 | 0.805 | 0.88 | 0.717 | 1.06 | 0.775 | 0.828 | 0.75
7 | COR-L23 | 0.197 | 0.181 | 0.215 | 0.143 | 0.379 | 0.365 | 0.315 | 0.4 | 0.596 | 0.425 | 0.514 | 0.407 | 0.649 | 0.472 | 0.477 | 0.459 | 1.15 | 0.926 | 0.92 | 0.837
8 | COR-L 105 | 0.381 | 0.398 | 0.381 | 0.319 | 0.686 | 0.775 | 0.663 | 0.679 | 0.493 | 0.389 | 0.35 | 0.336 | 0.789 | 0.8 | 0.905 | 0.82 | 1.11 | 0.806 | 0.83 | 0.828
9 | ChaGo-K-1 | 0.265 | 0.224 | 0.211 | 0.235 | 0.485 | 0.411 | 0.447 | 0.41 | 0.657 | 0.581 | 0.61 | 0.595 | 0.79 | 0.726 | 0.751 | 0.679 | – | – | – | –
10 | EKVX | 0.39 | 0.408 | 0.423 | 0.351 | 0.851 | 0.778 | 0.769 | 0.834 | 0.474 | 0.536 | 0.576 | 0.581 | 0.676 | 0.666 | 0.719 | 0.58 | 0.987 | 1.01 | 0.948 | 0.937
11 | EMC-BAC-2 | 0.296 | 0.282 | 0.285 | 0.287 | 0.473 | 0.479 | 0.491 | 0.492 | 0.349 | 0.32 | 0.336 | 0.326 | 0.522 | 0.451 | 0.761 | 0.371 | 0.855 | 0.793 | 0.791 | 0.784
12 | EPLC-272H | 0.59 | 0.277 | 0.31 | 0.198 | 0.68 | 0.613 | 0.805 | 0.778 | 0.403 | 0.41 | 0.445 | 0.325 | 0.509 | 0.536 | 0.402 | 0.53 | 1.19 | 1.11 | 1.35 | 1.14
13 | H3255 | 0.613 | 0.65 | 0.747 | 0.623 | 0.614 | 0.574 | 0.587 | 0.481 | 0.353 | 0.346 | 0.288 | 0.38 | 0.849 | 0.819 | 0.857 | 0.722 | 1.05 | 0.917 | 1.09 | 0.892
14 | HARA | 0.134 | 0.0806 | 0.107 | 0.108 | 0.762 | – | 0.762 | 0.947 | 0.309 | 0.16 | 0.29 | 0.28 | 0.608 | 0.557 | 0.681 | 0.395 | 0.97 | 0.869 | 0.935 | 0.994
15 | HCC-15 | 0.521 | 0.415 | 0.407 | 0.331 | 0.725 | 0.685 | 0.771 | 0.736 | 0.647 | 0.673 | 0.677 | 0.524 | 0.918 | 0.796 | 0.919 | 0.773 | 0.939 | 0.889 | 1 | 0.781
16 | HCC-44 | 1.27 | 0.805 | 1.26 | 0.983 | 1.04 | 0.98 | 0.97 | 0.928 | – | – | – | – | 1.28 | 1.05 | 1.13 | 1.06 | 0.619 | 0.631 | 0.728 | 0.636
